No end group written: not given here.
Legend:
ovariectomized rats = assay: Efficacy testing of PTH analogs in ovariectomized rats; format: in vivo, Sprague Dawley rats; details: for proximal tibia trabecular bone mineral density (BMD) by pQCT: Week 20; for osteocalcin (bone formation marker): plasma
Protocol: To compare their effects in bone, amidated fragments of human parathyroid hormone (PTH) were evaluated in the ovariectomized rat model. Aged female Sprague Dawley rats were subject to bilateral ovariectomy or sham surgery. The animals were held untreated for a period of 8 weeks to allow the development of osteopenia. At that point, the ovariectomized animals were segregated into groups, and each group received daily subcutaneous injection of either vehicle or one of the following PTH fragments: PTH[1-30]NH2, PTH[1-31]NH2, PTH[1-32]NH2, PTH[1-33]NH2, and PTH[1-34]NH2 at a dose of 9.7 nmol/Kg. Treatment continued for a period of twelve weeks. Primary measures of analyses were 1) bone mineral density (BMD) of the spine (L3-L6) as determined by Dual Energy X-Ray Absorptiometry (DXA), 2) trabecular BMD of the proximal tibia as determined by peripheral Quantitative Computed Tomography (pQCT)and 3) evaluation of cortical bone in the distal tibia by PQCT. Secondary measures included urinary deoxypyridinoline (bone resorption marker), plasma osteocalcin (bone formation marker), histomorphometry of trabecular bone from the fourth lumbar vertebra (L4) and cortical bone from the distal tibia, microcomputed tomography (μCT), and bone strength tests of the spine and femur. Bone strength analysis was done on the femoral midshaft and a lumbar vertebral body.
In other experiments involving an ovariectomized rat model for osteoporosis, good efficacy is shown for the pharmaceutical agents of the invention. For example, the groups used in the study were: Sham, OVX (ovariectomized rats), OVX+PTH(1-30)NH2, OVX+PTH(1-31)NH2, OVX +PTH(1-32)NH2, OVX +PTH(1-33)NH2 and OVX +PTH(1-34)NH2.

ovariectomized rat model = details: cited from earlier work
adenylyl cyclase (AC) = details: cited from earlier work
[1] = 9.7 nmol/Kg daily subcutaneous injection, twelve weeks

Substance	proximal tibia trabecular bone mineral density (BMD) by pQCT (ovariectomized rats)	bone formation rate/bone surface (BFR/BS) on the periosteal surface (ovariectomized rats; compared to OVX)	osteocalcin (bone formation marker) (ovariectomized rats)	cortical bone mass, bone formation on periosteal and endosteal bone surfaces (anabolic effect) (ovariectomized rats; rat, in vivo)	further results
PTH[1-34]NH2: amidated fragment of human parathyroid hormone (PTH), 34 amino acids; hPTH-(1-34) sequence is SEQ ID NO:1	continue to increase	increased BFR/BS	significantly more increase than PTH amide fragments (1-31) and (1-32)	increased cortical bone mass	–
PTH[1-33]NH2: C-terminal amidated human parathyroid hormone analog; hPTH-(1-33) sequence is SEQ ID NO:21 (SVSEIQLMHNLGKHLNSMERVEWLRKKLQDVHN-NH2; listed as Homo sapiens)	did not continue to increase	increased BFR/BS	–	increased cortical bone mass	–
PTH[1-32]NH2: C-terminal amidated human parathyroid hormone analog; hPTH-(1-32) sequence is SEQ ID NO:20 (SVSEIQLMHNLGKHLNSMERVEWLRKKLQDVH-NH2; listed as Homo sapiens)	continue to increase	–	–	increased cortical bone mass	percent porosity of the intracortex (ovariectomized rats; compared to OVX): significantly increased when compared to OVX except hPTH(1-32) amide
Ser Val Ser Glu Ile Gln Leu Met His Asn Leu Gly Lys His Leu Asn Ser Met Glu Arg Val Glu Trp Leu Arg Lys Lys Leu Gln Asp Val-NH2 [PTH[1-31]NH2]	continue to increase	increased BFR/BS	–	increased cortical bone mass	restoration of bone loss (ovariectomized rat model): fully active; AC-stimulating activity (adenylyl cyclase (AC)): has only AC-stimulating activity; total area (ovariectomized rats; cortical bone): did not increase significantly except hPTH amide (1-31)
PTH[1-30]NH2: amidated fragment of human parathyroid hormone (PTH), 30 amino acids (SVSEIQLMHNLGKHLNSMERVEWLRKKLQD-NH2; UniProt P01270 32-61, looked up, fragment)	–	–	significant increase in osteocalcin was observed for all PTH fragment treated groups except for PTH(1-30)NH2	anabolic effect is weak	increase in lumbar BMD (L3-L6) by DXA relative to the vehicle-treated ovariectomized animals (ovariectomized rats; [1]): 13%; increase in maximal load, compression testing of a lumbar vertebral body, relative to vehicle-treated ovariectomized animals (ovariectomized rats; [1]): 53%; effect on bone mass and strength (conclusion) (ovariectomized rats; common dose): gain in bone mass that was of a smaller magnitude than the other fragments; bone formation rate/bone surface, trabecular bone (ovariectomized rats; histomorphometry): anabolic effects of all hPTH amide fragments except hPTH(1-30); trabecular area (trabecular bone mass) (ovariectomized rats; in contrast to OVX): increased trabecular bone mass in contrast to OVX except for the hPTH amide fragment (1-30); anabolic effectiveness overall (percent trabecular area, bone volume/total volume, trabecular thickness and number) (ovariectomized rats; micro-CT and histomorphometry): less anabolically effective than the other fragments; cortical analysis of the midshaft of the femur by pQCT (ovariectomized rats; rat, in vivo): all fragments to be effective except hPTH(1-30)NH2; indices of cortical bone strength derived from pQCT (ovariectomized rats; rat, in vivo): no effect

Reference: patent US20060270603A1, “Amidated parathyroid hormone fragments and uses thereof” (Unigene Laboratories Inc., priority 2004, published 2006)
